Experimental data from US11491224B2, “Bladder cancer photodynamic therapeutic agents with off-on magnetic resonance imaging enhancement” (Hong Kong Baptist University, priority 2018, dated 2022).
Read-outs that look alike come from different tables or passages of the source.

What was measured:
[1] = T1 and T2 relaxivity measurements; format: physicochemical
Experimental: t1 relaxivity of the proposed MR-available PDT agent—NLPor-Gd-L1Rn (n=1 to 3) was measured. […] Without wishing to be bound by theory, this difference in relaxivity could be due to the different coordinative numbers of them: for NLPor-Gd-L1Rn, (n=1 to 3) the coordinative protection for the central Gd^3+ ion is better than that of Gd-DOTA, so the Gd^3+ ion in NLPor-Gd-L1Rn (n=1 to 3) has less chance to exchange with water protons compared to Gd-DOTA. The responsive t1 of NLPor-Gd-L1Rn (n=1-3) have been evaluated with the addition of different concentrations of αvβ3 integrin. […] (FIG. 6). When the αvβ3 integrin (targeting) binding might readily interact with two molecules and affect t1 relaxivity from 2nd or outer coordination spheres. The t1 relaxivity of NLPor-Gd-L1R3 is enhanced from 0.2847 mM^−1s^−1 to 3.225 mM^−1s^−1 with the addition of αvβ3 integrin.
t1 relaxivity of the proposed MR-available PDT agent—M-NLPor-Cyc-L2An (n=1 or 2) was measured. […]
The absorption and emission spectra of Zn-NLPorB2-Cyc-Gd-L2A2 and its precursor without Gd, Zn-NLPorB2-Cyc-L2A2 were measured in aqueous solution (FIGS. 54b and 54c). […] The singlet oxygen quantum yields (ΦΔ) of Zn-NLPorB2-Cyc-Gd-L2A2 and Zn-NLPorB2-Cyc-L2A2 were measured in CHCl3 and calculated by comparing to a reference compound tetraphenylporphyrin, H2TPP, (ΦΔ=0.55 in CHCl3). […]

[2] = test system: T24 bladder cancer xenografts; details: 100 μmol/kg (0.1 mmol/kg gadolinium), tail vein injection
Experimental: MRI signal enhancement was assessed by performing in vivo MRI measurements in three BALB/c nude mice bearing T24 bladder cancer xenografts. Three tumor models were developed by subcutaneous injection of T24 bladder cancer cells. […] MR images were acquired before and after tail vein injection of 200 μl of each sample at various time points.
MR images were acquired before and after 200 μL tail vein injection of each subject at various times.

[3] = in PBS buffer, reference value; cited from earlier work

O=C([O-])CN1CCN(CC(=O)[O-])CCN(CC(=O)O)CCN(CC(=O)[O-])CC1.[Gd+3] [Gd-DOTA, reference compound]
T1 relaxivity ([1]; 1.4T in water with 3% DMSO, 37° C.): 2.92 mM⁻¹ s⁻¹
T1 relaxivity (r1) ([1]; 1.5 T in water (3% DMSO)): 2.92 mM⁻¹ s⁻¹
post-injection MRI signal enhancement [2]: weak post-injection signal enhancement
post-injection MRI signal enhancement ([2]; listed as GdDOTA): Weak post injection signal enhancement

O=C1OC2(c3cc(I)c(O)c(I)c3Oc3c2cc(I)c(O)c3I)c2c(Cl)c(Cl)c(Cl)c(Cl)c21 [RB, Rose Bengal]
singlet oxygen quantum yield of reference (ΦRB) [3]: 0.75
